# Reference: patent EP1161438B1, “6-O-SUBSTITUTED MACROLIDES HAVING ANTIBACTERIAL ACTIVITY” (ABBOTT LABORATORIES, priority 1999, dated 2000)
# Tests used:
# Experiment in all cases: Agar dilution antibacterial MIC assay
# Type in all cases: cell-based
# [1] = tested on: Staphylococcus aureus CMX 553; conditions: organism code FF, BHI agar, 35-37 °C, 20 to 24 hours, unit assumed
# Description: (§1) Representative compounds of the present invention were assayed in vitro for antibacterial activity as follows: Twelve petri dishes containing successive aqueous dilutions of the test compound mixed with 10 mL of sterilized Brain Heart Infusion (BHI) agar (Difco 0418-01-5) were prepared. Each plate was inoculated with 1:100 (or 1:10 for slow-growing strains, such as Micrococcus and Streptococcus) dilutions of up to 32 different microorganisms, using a Steers replicator block. […] In addition, a control plate, using BHI agar containing no test compound, was prepared and incubated at the beginning and end of each test.
# (§2) An additional plate containing a compound having known susceptibility patterns for the organisms being tested and belonging to the same antibiotic class as the test compound was also prepared and incubated as a further control, as well as to provide test-to-test comparability.
# (§3) After incubation, each plate was visually inspected. The minimum inhibitory concentration (MIC) was defined as the lowest concentration of drug yielding no growth, a slight haze, or sparsely isolated colonies on the inoculum spot as compared to the growth control.
# [2] = tested on: Staphylococcus aureus ATCC 6538P; conditions: organism code AA, BHI agar, 35-37 °C, 20 to 24 hours, unit assumed
# Description: as §1, §2, §3
# [3] = tested on: Streptococcus agalactiae CMX 508; conditions: organism code KK, BHI agar, 35-37 °C, 20 to 24 hours, unit assumed
# Description: as §1, §2, §3
# [4] = tested on: Streptococcus Pneumonia GYR 1171; conditions: organism code YY, BHI agar, 35-37 °C, 20 to 24 hours, unit assumed
# Description: as §1, §2, §3
# [5] = tested on: Staphylococcus epidermidis 3519; conditions: organism code HH, BHI agar, 35-37 °C, 20 to 24 hours, unit assumed
# Description: as §1, §2, §3
# Escherichia coli DC-2 = conditions: organism code SS, BHI agar, 35-37 °C, 20 to 24 hours, unit assumed
# Description: as §1, §2, §3
# [6] = tested on: Micrococcus luteus ATCC 4698; conditions: organism code PP, BHI agar, 35-37 °C, 20 to 24 hours, unit assumed
# Description: as §1, §2, §3
# Candida albicans CCH 442 = conditions: organism code TT, BHI agar, 35-37 °C, 20 to 24 hours, unit assumed
# Description: as §1, §2, §3
# [7] = tested on: Staphylococcus aureus CMX 642A; conditions: organism code DD, BHI agar, 35-37 °C, 20 to 24 hours, unit assumed
# Description: as §1, §2, §3
# [8] = tested on: Staphylococcus aureus A5177; conditions: organism code BB, BHI agar, 35-37 °C, 20 to 24 hours, unit assumed
# Description: as §1, §2, §3
# [9] = tested on: Staphylococcus aureus 1775; conditions: organism code GG, BHI agar, 35-37 °C, 20 to 24 hours, unit assumed
# Description: as §1, §2, §3
# [10] = tested on: Streptococcus pyogenes EES61; conditions: organism code LL, BHI agar, 35-37 °C, 20 to 24 hours, unit assumed
# Description: as §1, §2, §3
# [11] = tested on: Staphylococcus aureus A-5278; conditions: organism code CC, BHI agar, 35-37 °C, 20 to 24 hours, unit assumed
# Description: as §1, §2, §3
# [12] = tested on: Haemophilis Influenzae DILL AMP R; conditions: organism code WW, BHI agar, 35-37 °C, 20 to 24 hours, unit assumed
# Description: as §1, §2, §3
# [13] = tested on: Enterococcus faecium ATCC 8043; conditions: organism code II, BHI agar, 35-37 °C, 20 to 24 hours, unit assumed
# Description: as §1, §2, §3
# [14] = tested on: Streptococcus bovis A-5169; conditions: organism code JJ, BHI agar, 35-37 °C, 20 to 24 hours, unit assumed
# Description: as §1, §2, §3
# [15] = tested on: Nocardia Asteroides ATCC9970; conditions: organism code VV, BHI agar, 35-37 °C, 20 to 24 hours, unit assumed
# Description: as §1, §2, §3
# [16] = tested on: Mycobacterium smegmatis ATCC 114; conditions: organism code UU, BHI agar, 35-37 °C, 20 to 24 hours, unit assumed
# Description: as §1, §2, §3
# Escherichia coli SS = conditions: organism code RR, BHI agar, 35-37 °C, 20 to 24 hours, unit assumed
# Description: as §1, §2, §3
# Escherichia coli JUHL = conditions: organism code QQ, BHI agar, 35-37 °C, 20 to 24 hours, unit assumed
# Description: as §1, §2, §3
# [17] = tested on: Streptococcus Pneumonia 5649; conditions: organism code ZZA, BHI agar, 35-37 °C, 20 to 24 hours, unit assumed
# Description: as §1, §2, §3
# [18] = tested on: Streptococcus pyogenes PIU 2548; conditions: organism code NN, BHI agar, 35-37 °C, 20 to 24 hours, unit assumed
# Description: as §1, §2, §3
# [19] = tested on: Staphylococcus aureus NCTC10649M; conditions: organism code EE, BHI agar, 35-37 °C, 20 to 24 hours, unit assumed
# Description: as §1, §2, §3
# [20] = tested on: Streptococcus pyogenes 930; conditions: organism code MM, BHI agar, 35-37 °C, 20 to 24 hours, unit assumed
# Description: as §1, §2, §3
# [21] = tested on: Streptococcus Pneumonia ATCC6303; conditions: organism code XX, BHI agar, 35-37 °C, 20 to 24 hours, unit assumed
# Description: as §1, §2, §3
# [22] = tested on: Micrococcus luteus ATCC 9341; conditions: organism code OO, BHI agar, 35-37 °C, 20 to 24 hours, unit assumed
# Description: as §1, §2, §3
# [23] = tested on: Streptococcus Pneumonia 5979; conditions: organism code ZZ, BHI agar, 35-37 °C, 20 to 24 hours, unit assumed
# Description: as §1, §2, §3
structure (smiles),measurement,setting,value
"CC[C@H]1OC(=O)[C@H](C)[C@@H](O[C@H]2C[C@@](C)(OC)[C@@H](O)[C@H](C)O2)[C@H](C)[C@@H](O[C@@H]2O[C@H](C)C[C@H](N(C)C)[C@H]2O)[C@](C)(O)C[C@@H](C)C(=O)[C@H](C)[C@@H](O)[C@]1(C)O [Ery. A standard, Erythromycin A, reference compound]",MIC,[1],0.39 µg/mL
same,MIC,[2],0.2 µg/mL
same,MIC,[3],0.05 µg/mL
same,MIC,[4],0.06 µg/mL
same,MIC,[5],0.39 µg/mL
same,MIC,Escherichia coli DC-2,> 100 µg/mL
same,MIC,[6],0.2 µg/mL
same,MIC,Candida albicans CCH 442,> 100 µg/mL
same,MIC,[7],0.39 µg/mL
same,MIC,[8],3.1 µg/mL
same,MIC,[9],> 100 µg/mL
same,MIC,[10],0.05 µg/mL
same,MIC,[11],> 100 µg/mL
same,MIC,[12],4 µg/mL
same,MIC,[13],0.05 µg/mL
same,MIC,[14],0.02 µg/mL
same,MIC,[15],0.1 µg/mL
same,MIC,[16],3.1 µg/mL
same,MIC,Escherichia coli SS,0.78 µg/mL
same,MIC,Escherichia coli JUHL,> 100 µg/mL
same,MIC,[17],16 µg/mL
same,MIC,[18],6.2 µg/mL
same,MIC,[19],0.39 µg/mL
same,MIC,[20],> 100 µg/mL
same,MIC,[21],0.06 µg/mL
same,MIC,[22],0.05 µg/mL
"CC[C@H]1OC(=O)[C@H](C)C(=O)[C@H](C)[C@@H](O[C@@H]2O[C@H](C)C[C@H](N(C)C)[C@H]2O)[C@](C)(OCC#Cc2ccc(-c3ccccn3)s2)C[C@@H](C)C(=O)[C@H](C)[C@H]2NC(=O)O[C@@]21C [Example 1, Compound of Formula I: R^b is H, L is -C(O)-, T is -NH-, R is-(CH2)-C≡C-(5-(2-pyridyl)-2-thienyl)]",MIC,[1],0.05 µg/mL
same,MIC,[2],0.05 µg/mL
same,MIC,[3],0.02 µg/mL
same,MIC,[4],0.03 µg/mL
same,MIC,[5],0.1 µg/mL
same,MIC,Escherichia coli DC-2,6.2 µg/mL
same,MIC,[6],0.1 µg/mL
same,MIC,Candida albicans CCH 442,> 100 µg/mL
same,MIC,[7],0.05 µg/mL
same,MIC,[8],0.05 µg/mL
same,MIC,[9],> 100 µg/mL
same,MIC,[10],0.02 µg/mL
same,MIC,[11],> 100 µg/mL
same,MIC,[12],2 µg/mL
same,MIC,[23],0.25 µg/mL
same,MIC,[13],0.05 µg/mL
same,MIC,[14],0.01 µg/mL
same,MIC,[15],0.02 µg/mL
same,MIC,[16],0.2 µg/mL
same,MIC,Escherichia coli SS,0.1 µg/mL
same,MIC,Escherichia coli JUHL,12.5 µg/mL
same,MIC,[17],0.25 µg/mL
same,MIC,[18],0.1 µg/mL
same,MIC,[19],0.1 µg/mL
same,MIC,[20],12.5 µg/mL
same,MIC,[21],0.03 µg/mL
same,MIC,[22],0.02 µg/mL
"CC[C@H]1OC(=O)[C@H](C)C(=O)[C@H](C)[C@@H](O[C@@H]2O[C@H](C)C[C@H](N(C)C)[C@H]2O)[C@](C)(OCC#Cc2ccc(-c3cccnc3)s2)C[C@@H](C)C(=O)[C@H](C)[C@H]2NC(=O)O[C@@]21C [Example 2, Compound of Formula I: R^b is H, L is -C(O)-, T is -NH-, R is-(CH2)-C≡C-(5-(3-pyridyl)-2-thienyl)]",MIC,[1],0.05 µg/mL
same,MIC,[2],0.05 µg/mL
same,MIC,[3],≤ 0.005 µg/mL
same,MIC,[4],0.03 µg/mL
same,MIC,[5],0.05 µg/mL
same,MIC,Escherichia coli DC-2,25 µg/mL
same,MIC,[6],0.1 µg/mL
same,MIC,Candida albicans CCH 442,> 100 µg/mL
same,MIC,[7],0.05 µg/mL
same,MIC,[8],0.05 µg/mL
same,MIC,[9],> 100 µg/mL
same,MIC,[10],0.01 µg/mL
same,MIC,[11],> 100 µg/mL
same,MIC,[12],2 µg/mL
same,MIC,[23],0.25 µg/mL
same,MIC,[13],0.05 µg/mL
same,MIC,[14],≤ 0.005 µg/mL
same,MIC,[15],0.05 µg/mL
same,MIC,[16],0.2 µg/mL
same,MIC,Escherichia coli SS,0.1 µg/mL
same,MIC,Escherichia coli JUHL,25 µg/mL
same,MIC,[17],0.12 µg/mL
same,MIC,[18],0.1 µg/mL
same,MIC,[19],0.05 µg/mL
same,MIC,[20],3.1 µg/mL
same,MIC,[21],0.03 µg/mL
same,MIC,[22],≤ 0.005 µg/mL
